Source: ChEMBL document CHEMBL2074380, “Pyronaridine, a novel modulator of P-glycoprotein-mediated multidrug resistance in tumor cells in vitro and in vivo” (Biochem Biophys Res Commun, 2004)

How the values were obtained:
Type in all cases: functional, cell-based
[1] = target: T1, ATP-dependent translocase ABCB1 (Homo sapiens, UniProt P08183); test: TP_TRANSPORTER: drug resistance (doxorubicin) in MCF-7/ADR cells; settings: nci/adr-res
[2] = target: T1, ATP-dependent translocase ABCB1; test: TP_TRANSPORTER: drug resistance (doxorubicin) in K562/A02 cells
[3] = target: T1, ATP-dependent translocase ABCB1; test: TP_TRANSPORTER: increase in Rhodamine 123 intracellular accumulation in K562/A02 cells

Measured: Activity

T1 sequence (P08183 whole entry): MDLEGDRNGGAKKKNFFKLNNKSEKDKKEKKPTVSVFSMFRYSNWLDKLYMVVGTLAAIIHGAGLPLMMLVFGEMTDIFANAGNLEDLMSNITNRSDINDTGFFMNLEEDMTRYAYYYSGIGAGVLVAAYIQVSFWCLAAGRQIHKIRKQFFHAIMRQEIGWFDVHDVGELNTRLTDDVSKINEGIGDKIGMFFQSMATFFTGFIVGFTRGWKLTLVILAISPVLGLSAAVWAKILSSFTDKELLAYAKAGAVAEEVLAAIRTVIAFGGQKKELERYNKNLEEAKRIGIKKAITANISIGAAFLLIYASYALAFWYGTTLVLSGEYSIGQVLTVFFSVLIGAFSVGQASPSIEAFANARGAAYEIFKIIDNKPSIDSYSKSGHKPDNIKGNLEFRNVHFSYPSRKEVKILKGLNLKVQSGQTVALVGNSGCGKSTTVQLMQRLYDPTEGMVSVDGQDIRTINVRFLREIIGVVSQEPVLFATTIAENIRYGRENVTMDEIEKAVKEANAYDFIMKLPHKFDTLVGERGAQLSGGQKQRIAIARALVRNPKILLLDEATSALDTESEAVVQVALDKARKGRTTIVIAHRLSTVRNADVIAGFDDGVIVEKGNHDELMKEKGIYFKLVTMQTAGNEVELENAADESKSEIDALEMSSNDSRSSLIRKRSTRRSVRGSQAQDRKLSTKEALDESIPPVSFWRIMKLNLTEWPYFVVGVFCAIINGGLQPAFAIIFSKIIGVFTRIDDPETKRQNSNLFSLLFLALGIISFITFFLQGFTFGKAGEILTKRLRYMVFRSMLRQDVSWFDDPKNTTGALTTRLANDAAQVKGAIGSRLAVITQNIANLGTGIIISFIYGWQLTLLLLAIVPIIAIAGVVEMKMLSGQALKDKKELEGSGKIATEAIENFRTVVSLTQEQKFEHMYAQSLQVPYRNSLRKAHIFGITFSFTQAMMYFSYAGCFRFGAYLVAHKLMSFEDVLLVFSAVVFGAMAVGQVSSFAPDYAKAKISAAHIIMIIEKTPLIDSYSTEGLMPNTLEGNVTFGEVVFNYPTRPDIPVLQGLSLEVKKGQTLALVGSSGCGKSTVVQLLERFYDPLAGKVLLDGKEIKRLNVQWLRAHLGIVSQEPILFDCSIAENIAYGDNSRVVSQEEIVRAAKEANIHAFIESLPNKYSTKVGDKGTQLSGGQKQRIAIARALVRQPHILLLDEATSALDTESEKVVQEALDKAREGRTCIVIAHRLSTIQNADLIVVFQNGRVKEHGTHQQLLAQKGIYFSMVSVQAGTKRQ

COc1ccc2nc3cc(Cl)ccc3c(Nc3cc(CN4CCCC4)c(O)c(CN4CCCC4)c3)c2n1 [PYRONARIDINE]
inhibitor [+]: all assays above
